Read-outs that look alike come from different tables or passages of the source.
Tests used:
[1] = mice, cited from earlier work; for AUCtotal plasma of released FA / AUCu, plasma of released FA / Cmax, u plasma of released FA: FA released from the dosed derivative; for AUCtotal plasma of released FA / AUCu, plasma of released FA / Cmax, u plasma of released FA / tmax plasma / Cmax / AUCu, plasma / Cmax, u plasma: 25 μmol/kg i.p.; for AUCtotal plasma: 25 μmol/kg i.p. bolus; for peak concentration in plasma: after a high bolus dose (25 μmol/kg i.p.); for Cmax: read-out: Cmax plasma; for AUCu, plasma / Cmax, u plasma: unbound
[2] = HUVEC viability, WST-1 assay; assay type: cell-based, human; conditions: human, HUVEC cells; WST-1, 24 h, % of control, mean ± SD (n = 6–8)
Protocol: As a third in vitro toxicity study in the human blood circulation system, the effects of FA, D1, and D2 on the viability of human umbilical vein endothelial cells (HUVECs; RRID CVCL_2959; Lonza, Italy; Cat. no. CC-2517) were determined using the WST-1 assay (Takara, Takara Bio Europe, Europe, Saint-Germain-en-Laye, France), according to the previously published protocol.[32] Briefly, the cells were cultured according to the manufacturer’s guidelines with the following ingredients: EGM-2-medium + bullet kit (Lonza, Clonetics, Italy), accutase (Sigma-Aldrich, Germany), and HEPES-buffered saline solution (Lonza, Basel, Switzerland). For the assay, the cells were seeded at the density of 7 500 HUVECs per well on 96-well plates and cultured for 24 h to obtain 70% confluency. Subsequently, the cells were treated with studied compounds in multiplicate (n = 6–8) at the concentration of 0.1–100 μM in the growth medium for 24 h (37 °C, 5% CO2). Cells with untreated growth medium represented 100% viability, whereas cells treated with medium containing 0.5% (v/v) methanol served as a negative control for drug solvent. After treating cells for 24 h, medium was removed, the cells were washed with the culture medium (100 μl/well), and 100 μL of WST-1 reagent dissolved in culture medium was added into each well. The plates were incubated at 37 °C with 5% CO2 for 2 h, after which absorbance values were measured at the 450 nm wavelength using a microplate reader (iMARK, Bio-Rad). Additionally, the effects of treatments on HUVEC morphology were examined microscopically using a phase-contrast Opta-Tech inverted microscope equipped with OptaView 7 software (Opta-Tech, Warsaw, Poland) for image analysis.

[3] = In vivo pharmacokinetics in mouse pancreas, liver and kidney after i.p. bolus; conditions: 25 μmol/kg i.p.; for Cmax kidney / Cmax liver / Cmax pancreas / AUCtotal kidney / AUCtotal liver / AUCtotal pancreas / Kp / half-life / Kp,uu (unbound tissue-to-plasma AUC ratio) / Tmax / AUCu, kidney / AUCu, liver / AUCu, pancreas / Cmax, u kidney / Cmax, u liver / Cmax, u pancreas: mice; for AUCtotal kidney / AUCtotal liver / AUCtotal pancreas: n = 3; for pancreas AUC, times higher in comparison to the original FA: mouse pancreas; for Kp / half-life / Kp,uu (unbound tissue-to-plasma AUC ratio) / Tmax: mouse, ip, 25 umol/kg; for Kp: tissue/plasma partition coefficient (eq 2); for half-life: elimination half-life; for AUCu, kidney / AUCu, liver / AUCu, pancreas: unbound (eq 3); for Cmax, u kidney / Cmax, u liver / Cmax, u pancreas: unbound
Protocol: The pharmacokinetic study of FA, D1, and D2 was performed as previously described,[17] in which the pharmacokinetic parameters for the plasma and brain have been reported. Briefly, the studied compounds were dissolved in a vehicle containing 0.9% (w/v) NaCl in water, and a dose of 25 μmol/kg of the FA, D1, or D2 (n = 3 per compound at each time point) was administered as a bolus intraperitoneal (i.p.) injection for mice. The mice were anesthetized using a mixture of ketamine (140 mg/kg) and xylazine (8 mg/kg) and sacrificed by decapitation at selected time points between 10 and 360 min. The kidney, liver, and pancreas were rapidly collected, snap-frozen on dry ice, and stored at −80 °C until analyzed.
The frozen tissues were weighed and homogenized with ultrapure water (1:3 w/v) by sonicating twice for 5 s with the SoniPrep 150 Plus disintegrator (MSE Ltd., London, UK). The proteins were precipitated by diluting homogenate 1:3 (v/v) with acetonitrile containing the internal standards—chlorzoxazone for FA and diclofenac for derivatives. Samples were then centrifuged at 14 000 × g for 10 min at 4 °C. Supernatants were collected and diluted further 1:1 with ultrapure water and transferred into HPLC vials for the analysis by liquid chromatography-tandem mass spectrometry (LC–MS/MS).
Drug concentrations were analyzed using the LC–MS/MS method described previously,[17] with minor changes. Briefly, the analysis was carried out with an Agilent 1200 Series Rapid Resolution LC System with an Agilent Zorbax XBD-C18 rapid resolution high-throughput (RRHT) column (50 mm × 4.6 mm, 1.8 μm) and an Agilent 6410 triple quadrupole mass spectrometer equipped with an electrospray ionization source (Agilent Technologies, Palo Alto, CA, USA). The LC eluents were water (eluent A) and acetonitrile (eluent B), both containing 0.1% (v/v) formic acid. FA was separated with the following gradient: 0–1 min: 5% B, 1–2 min: 5% B → 90%, 2–4 min: 90% B, 4–4.1 min: 90% B → 5%, and 4.1–7 min: 5% B. For the derivatives, the gradient was as follows: 0–1 min: 10% B, 1–2 min: 10% B → 90%, 2–5 min: 90% B, 5–5.1 min: 90% B → 10%, and 5.1–8 min: 10% B. In both methods, the LC flow rate was 0.3 mL/min, the column temperature was set to 40 °C, and the sample injection volume was 5 μL.
The LC–MS/MS data acquisition for the FA was performed in a negative ion mode with the following conditions: drying gas flow 6.5 l/min with the temperature of 300 °C, nebulizer gas pressure of 20 psi, and capillary voltage of 4 000 V. MRM transitions were 193 → 149 for FA and 168 → 132 for chlorzoxazone. Fragmentor voltages were 100 and 120 V, respectively, and the collision energy was 20 V for both. For D1 and D2, the analysis was performed in a positive ion mode with the following conditions: drying gas flow of 6.5 l/min with the temperature of 300 °C, nebulizer gas pressure of 20 psi, and capillary voltage of 3 000 V. MRM transitions were 371 → 176.8 for D1, 357 → 310.9 for D2, and 296 → 250 for the diclofenac. The fragmentor voltages were 60, 40, and 100 V, and the collision energies were 16, 8, and 10 V, respectively. The data acquisition software was Agilent MassHunter Workstation software (version B.03.01), whereas Quantitative Analysis (B.09.00) software was used for data processing and analysis. The lower limit of quantification for the FA was 0.05 nmol/g and was 0.01 nmol/g for derivatives. The methods were linear, selective, accurate, and precise in the calibration range of 0.05–300 nmol/g for FA and 0.01–300 nmol/g for derivatives.
The time–concentration profiles for studied drugs were calculated using GraphPad Prism v. 5.03 software (GraphPad Software, San Diego, CA, USA). The area under curve (AUC) was calculated using the linear trapezoidal method, providing simultaneously the numeric pharmacokinetic parameters, such as tmax and Cmax. The half-life of elimination (t1/2β) was calculated from a logarithmic slope based on at least the last three detected timepoints. […]

[4] = kidney, read-out: t1/2β, kidney
[5] = kidney, read-out: AUCu, kidney/AUCu plasma
[6] = kidney, read-out: tmax kidney (converted)
[7] = liver, read-out: AUCu, liver/AUCu plasma
[8] = liver, read-out: tmax liver (converted)
[9] = pancreas, read-out: Kp, pancreas
[10] = pancreas, read-out: t1/2β, pancreas
[11] = pancreas, read-out: AUCu, pancreas/AUCu plasma
[12] = pancreas, read-out: tmax pancreas (converted)

SMILES	AUCtotal plasma [1]	tmax plasma [1]	Cmax [1]	AUCu, plasma [1]	Cmax, u plasma [1]	viability at 24 h, 100 µM [2]	Cmax kidney [3]	Cmax liver [3]	Cmax pancreas [3]	AUCtotal kidney [3]	AUCtotal liver [3]	AUCtotal pancreas [3]	Kp ([3]; kidney, read-out: Kp, kidney)	half-life [3, 4]	Kp,uu (unbound tissue-to-plasma AUC ratio) [3, 5]	Tmax [3, 6]	Kp ([3]; liver, read-out: Kp, liver)	half-life ([3]; liver, read-out: t1/2β, liver)	Kp,uu (unbound tissue-to-plasma AUC ratio) [3, 7]	Tmax [3, 8]	other results
COc1cc(C=CC(=O)NCc2cccc(CC(N)C(=O)O)c2)ccc1O (centres unmarked) [derivative 1]	1042 nmol·min/mL	10 min	41.9 µM	262 nmol·min/mL	10.5 µM	80.7 ± 4.26%	20.4 nmol/g	44.3 nmol/g	168 nmol/g	415 nmol·min/g	1 769 nmol/g × min	5 182 nmol/g × min	0.4	11.8 min	0.74	10 min	1.7	11.7 min	2.9	10 min	AUCtotal plasma of released FA [1]: 507 nmol·min/mL; AUCu, plasma of released FA [1]: 54 nmol·min/mL; Cmax, u plasma of released FA [1]: 0.3 µM; peak concentration in plasma [1]: 41.9 µM; viability at 24 h, 50 µM [2]: 89 ± 7.27%; pancreas AUC, times higher in comparison to the original FA [3]: 129.2 times; Kp [3, 9]: 4.97; half-life [3, 10]: 9.9 min; Kp,uu (unbound tissue-to-plasma AUC ratio) [3, 11]: 5.54; Tmax [3, 12]: 10 min; AUCu, kidney [3]: 194 nmol·min/g; AUCu, liver [3]: 752 nmol·min/g; AUCu, pancreas [3]: 1 452 nmol/g × min; Cmax, u kidney [3]: 9.6 nmol/g; Cmax, u liver [3]: 18.8 nmol/g; Cmax, u pancreas [3]: 47.1 nmol/g
COc1cc(C=CC(=O)O)ccc1O [ferulic acid, 4-hydroxy-3-methoxycinnamic acid]	591 nmol·min/mL	10 min	33.2 µM	63 nmol·min/mL	3.6 µM	62.6 ± 15%	14.4 nmol/g	18.0 nmol/g	5.4 nmol/g	140 nmol·min/g	408 nmol·min/g	40.1 nmol·min/g	0.24	3.4 min	2.21	10 min	0.69	11.2 min	5.5	10 min	peak concentration in plasma [1]: 33.2 µM; Kp [3, 9]: 0.07; Kp,uu (unbound tissue-to-plasma AUC ratio) [3, 11]: 0.64; Tmax [3, 12]: 10 min; AUCu, kidney [3]: 139 nmol·min/g; AUCu, liver [3]: 347 nmol·min/g; AUCu, pancreas [3]: 40.1 nmol·min/g; Cmax, u kidney [3]: 14.3 nmol/g; Cmax, u liver [3]: 15.3 nmol/g; Cmax, u pancreas [3]: 5.4 nmol/g
COc1cc(/C=C/C(=O)Nc2cccc(C[C@H](N)C(=O)O)c2)ccc1O [derivative 2]	463 nmol·min/mL	10 (released 10) min	21.1 µM	40 nmol·min/mL	1.8 µM	60.3 ± 16.9%	196 nmol/g	66.4 nmol/g	253 nmol/g	3 368 nmol/g × min	2 100 nmol/g × min	8 172 nmol/g × min	7.27	8 min	25.7	10 min	4.54	13.1 min	12.4	10 min	AUCtotal plasma of released FA [1]: 75 nmol·min/mL; AUCu, plasma of released FA [1]: 8 nmol·min/mL; Cmax, u plasma of released FA [1]: 0.2 µM; viability at 24 h, 50 µM [2]: 73.5 ± 14.7%; pancreas AUC, times higher in comparison to the original FA [3]: 203.8 times; Kp [3, 9]: 17.6; half-life [3, 10]: 33.8 min; Kp,uu (unbound tissue-to-plasma AUC ratio) [3, 11]: 30.6; Tmax [3, 12]: 30 min; AUCu, kidney [3]: 1 028 nmol/g × min; AUCu, liver [3]: 496 nmol·min/g; AUCu, pancreas [3]: 1 226 nmol/g × min; Cmax, u kidney [3]: 59.8 nmol/g; Cmax, u liver [3]: 15.7 nmol/g; Cmax, u pancreas [3]: 38.0 nmol/g
